Experimental data reported in patent US8741934B2, “Inhibitors of ion channels” (Pfizer Limited, priority 2007, dated 2014).
pIC50: −log10 of the molar value.

How the values were obtained:
[1] = target: T1, hSCN3A sodium channels (Homo sapiens, UniProt Q9NY46); assay: hSCN3A electrophysiology, whole-cell patch-clamp or PatchXpress 7000, estimated IC-50 (Table B); format: cell-based; details: estimated IC-50; hSCN3A cells, whole-cell patch-clamp or PatchXpress 7000; read-out: SCN3A EIC-50
T1 construct: expressed in transfected cells
T1 sequence (Q9NY46 whole entry): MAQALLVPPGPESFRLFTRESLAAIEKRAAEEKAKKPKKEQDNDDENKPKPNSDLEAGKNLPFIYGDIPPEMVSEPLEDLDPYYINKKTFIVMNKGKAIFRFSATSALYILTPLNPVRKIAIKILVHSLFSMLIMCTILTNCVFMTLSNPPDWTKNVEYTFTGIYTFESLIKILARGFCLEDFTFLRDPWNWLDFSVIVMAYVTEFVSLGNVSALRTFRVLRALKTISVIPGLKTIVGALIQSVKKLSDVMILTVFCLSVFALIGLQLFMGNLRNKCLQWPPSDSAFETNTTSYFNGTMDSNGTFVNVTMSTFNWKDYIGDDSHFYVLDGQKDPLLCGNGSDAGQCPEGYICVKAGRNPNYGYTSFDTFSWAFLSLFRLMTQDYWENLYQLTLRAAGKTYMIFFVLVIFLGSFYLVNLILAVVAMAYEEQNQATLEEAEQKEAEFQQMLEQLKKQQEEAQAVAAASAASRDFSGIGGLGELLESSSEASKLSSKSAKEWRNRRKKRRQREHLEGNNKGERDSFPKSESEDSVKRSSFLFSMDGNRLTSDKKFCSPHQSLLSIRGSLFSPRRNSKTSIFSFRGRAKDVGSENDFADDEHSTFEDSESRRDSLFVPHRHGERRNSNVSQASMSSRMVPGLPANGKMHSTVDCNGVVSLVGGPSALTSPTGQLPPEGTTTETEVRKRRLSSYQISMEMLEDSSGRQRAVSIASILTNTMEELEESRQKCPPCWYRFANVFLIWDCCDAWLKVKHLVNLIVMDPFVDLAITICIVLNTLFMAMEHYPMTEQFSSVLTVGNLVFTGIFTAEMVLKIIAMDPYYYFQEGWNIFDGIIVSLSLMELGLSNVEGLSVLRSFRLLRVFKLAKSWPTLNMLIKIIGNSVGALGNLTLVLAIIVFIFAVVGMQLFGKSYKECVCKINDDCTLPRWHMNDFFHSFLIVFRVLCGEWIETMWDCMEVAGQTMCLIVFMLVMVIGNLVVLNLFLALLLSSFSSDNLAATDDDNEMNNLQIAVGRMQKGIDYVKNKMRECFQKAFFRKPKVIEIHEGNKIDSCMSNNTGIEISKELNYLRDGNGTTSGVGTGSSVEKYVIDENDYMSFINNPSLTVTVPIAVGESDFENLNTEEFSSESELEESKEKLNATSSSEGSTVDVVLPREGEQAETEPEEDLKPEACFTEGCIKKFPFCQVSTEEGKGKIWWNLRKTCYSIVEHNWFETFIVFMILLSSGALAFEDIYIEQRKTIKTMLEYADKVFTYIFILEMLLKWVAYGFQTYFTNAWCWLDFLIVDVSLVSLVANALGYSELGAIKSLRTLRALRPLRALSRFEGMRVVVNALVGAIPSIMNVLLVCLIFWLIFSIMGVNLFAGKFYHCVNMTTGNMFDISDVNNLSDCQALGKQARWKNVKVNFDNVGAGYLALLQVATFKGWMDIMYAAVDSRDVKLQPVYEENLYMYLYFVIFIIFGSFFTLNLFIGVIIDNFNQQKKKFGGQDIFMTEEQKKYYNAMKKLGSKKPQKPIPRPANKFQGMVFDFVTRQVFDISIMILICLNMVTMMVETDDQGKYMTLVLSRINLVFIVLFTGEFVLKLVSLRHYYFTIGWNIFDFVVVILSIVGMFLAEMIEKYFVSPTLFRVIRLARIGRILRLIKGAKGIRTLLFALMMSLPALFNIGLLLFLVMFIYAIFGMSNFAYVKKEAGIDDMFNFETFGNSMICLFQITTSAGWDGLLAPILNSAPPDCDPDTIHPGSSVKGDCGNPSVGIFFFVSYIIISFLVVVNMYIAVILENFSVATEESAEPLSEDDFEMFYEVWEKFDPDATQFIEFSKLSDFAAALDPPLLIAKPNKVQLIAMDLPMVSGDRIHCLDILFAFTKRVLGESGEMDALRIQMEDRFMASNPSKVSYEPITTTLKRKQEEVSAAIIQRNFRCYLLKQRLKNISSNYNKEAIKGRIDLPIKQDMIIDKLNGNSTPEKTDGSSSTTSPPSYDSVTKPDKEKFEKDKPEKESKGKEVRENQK
Summary of the method: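 Stably transfected HEK cells, whole-cell voltage clamp at 22-24° C, manual or PatchXpress 7000. Cells held at empirically determined inactivation V1/2; current evoked by 20 msec step to 0 mV after 8 sec prepulse to V1/2.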

[2] = format: in vivo, rat; details: in contrast to compounds I, II and III
Procedure: The bioanalysis of plasma samples from rats dosed with LC/MS/MS detection of sulfathiazole as measured against an internal standard. Extraction was performed on-line with a turbulent flow chromatography system (HTLC). The transfer from the HTLC to the analytical HPLC is automatic. The mass spectrometer was operated in API ionization mode with an electrospray interface between the analytical HPLC and the mass spectrometer. Multiple reaction monitoring (mrm) detection was used for each analyte on a triple quadrupole mass spectrometer.
2. Materials • HPLC grade reagents were used such as: • Water (Hydro Services Picosystem water filtration) • Methanol (Fisher Ultima) • Ammonium formate (Sigma), and • Formic acid (Sigma) • Rat plasma • sulfathiazole • internal standard B. Instrument Conditions • Mass spectrometer: • Positive ion, mrm detection at • m/z 256 to m/z 108 for ICA-000024 • m/z 342 to m/z 218 for ICA-18756 (internal standard) • 100 ms Dwell time • Cone voltage, capillary voltage and collision energy were optimized for each compound • Source Temperature: 125 C, Desolvation temperature: 325 C • Cone gas at 73 L/hr, and Desolvation gas at 740 L/hr C. Chromatography Conditions
1. Mobile Phases: • A: 98% water:2% methanol with • 4 mM ammonium formate, 0.1% formic acid • B: 98% methanol:2% water with • 4 mM ammonium formate, 0.1% formic acid
2. HTLC Turbulent Flow Quaternary Pump • Column: Cohesive Cyclone Turbo-Flow • Timetable:
3. Analytical Binary Pump • Column: Phenomenex Synergi Hydro-RP 4u 50 mm×2.1 mm • Timetable:
4. Injection Volume • 20 μL D. Preparation of Standards and Samples
Plasma standards and samples were prepared for injection according to the standard operating procedure, HTLC Plasma Analysis by LC/MS/MS.

[3] = target: Nav1.3 (Homo sapiens, UniProt Q9NY46); details: read-out: TTX IC-50; cited from earlier work
Nav1.3, sequence (Q9NY46 whole entry, looked up): as the sequence (Q9NY46 whole entry) above

[4] = target: Nav1.6 (Homo sapiens, UniProt Q9UQD0); details: read-out: TTX IC-50; cited from earlier work
[5] = target: Nav1.8 (Homo sapiens, UniProt Q9Y5Y9); details: read-out: TTX IC-50; cited from earlier work
Nav1.8, sequence (Q9Y5Y9 whole entry, looked up): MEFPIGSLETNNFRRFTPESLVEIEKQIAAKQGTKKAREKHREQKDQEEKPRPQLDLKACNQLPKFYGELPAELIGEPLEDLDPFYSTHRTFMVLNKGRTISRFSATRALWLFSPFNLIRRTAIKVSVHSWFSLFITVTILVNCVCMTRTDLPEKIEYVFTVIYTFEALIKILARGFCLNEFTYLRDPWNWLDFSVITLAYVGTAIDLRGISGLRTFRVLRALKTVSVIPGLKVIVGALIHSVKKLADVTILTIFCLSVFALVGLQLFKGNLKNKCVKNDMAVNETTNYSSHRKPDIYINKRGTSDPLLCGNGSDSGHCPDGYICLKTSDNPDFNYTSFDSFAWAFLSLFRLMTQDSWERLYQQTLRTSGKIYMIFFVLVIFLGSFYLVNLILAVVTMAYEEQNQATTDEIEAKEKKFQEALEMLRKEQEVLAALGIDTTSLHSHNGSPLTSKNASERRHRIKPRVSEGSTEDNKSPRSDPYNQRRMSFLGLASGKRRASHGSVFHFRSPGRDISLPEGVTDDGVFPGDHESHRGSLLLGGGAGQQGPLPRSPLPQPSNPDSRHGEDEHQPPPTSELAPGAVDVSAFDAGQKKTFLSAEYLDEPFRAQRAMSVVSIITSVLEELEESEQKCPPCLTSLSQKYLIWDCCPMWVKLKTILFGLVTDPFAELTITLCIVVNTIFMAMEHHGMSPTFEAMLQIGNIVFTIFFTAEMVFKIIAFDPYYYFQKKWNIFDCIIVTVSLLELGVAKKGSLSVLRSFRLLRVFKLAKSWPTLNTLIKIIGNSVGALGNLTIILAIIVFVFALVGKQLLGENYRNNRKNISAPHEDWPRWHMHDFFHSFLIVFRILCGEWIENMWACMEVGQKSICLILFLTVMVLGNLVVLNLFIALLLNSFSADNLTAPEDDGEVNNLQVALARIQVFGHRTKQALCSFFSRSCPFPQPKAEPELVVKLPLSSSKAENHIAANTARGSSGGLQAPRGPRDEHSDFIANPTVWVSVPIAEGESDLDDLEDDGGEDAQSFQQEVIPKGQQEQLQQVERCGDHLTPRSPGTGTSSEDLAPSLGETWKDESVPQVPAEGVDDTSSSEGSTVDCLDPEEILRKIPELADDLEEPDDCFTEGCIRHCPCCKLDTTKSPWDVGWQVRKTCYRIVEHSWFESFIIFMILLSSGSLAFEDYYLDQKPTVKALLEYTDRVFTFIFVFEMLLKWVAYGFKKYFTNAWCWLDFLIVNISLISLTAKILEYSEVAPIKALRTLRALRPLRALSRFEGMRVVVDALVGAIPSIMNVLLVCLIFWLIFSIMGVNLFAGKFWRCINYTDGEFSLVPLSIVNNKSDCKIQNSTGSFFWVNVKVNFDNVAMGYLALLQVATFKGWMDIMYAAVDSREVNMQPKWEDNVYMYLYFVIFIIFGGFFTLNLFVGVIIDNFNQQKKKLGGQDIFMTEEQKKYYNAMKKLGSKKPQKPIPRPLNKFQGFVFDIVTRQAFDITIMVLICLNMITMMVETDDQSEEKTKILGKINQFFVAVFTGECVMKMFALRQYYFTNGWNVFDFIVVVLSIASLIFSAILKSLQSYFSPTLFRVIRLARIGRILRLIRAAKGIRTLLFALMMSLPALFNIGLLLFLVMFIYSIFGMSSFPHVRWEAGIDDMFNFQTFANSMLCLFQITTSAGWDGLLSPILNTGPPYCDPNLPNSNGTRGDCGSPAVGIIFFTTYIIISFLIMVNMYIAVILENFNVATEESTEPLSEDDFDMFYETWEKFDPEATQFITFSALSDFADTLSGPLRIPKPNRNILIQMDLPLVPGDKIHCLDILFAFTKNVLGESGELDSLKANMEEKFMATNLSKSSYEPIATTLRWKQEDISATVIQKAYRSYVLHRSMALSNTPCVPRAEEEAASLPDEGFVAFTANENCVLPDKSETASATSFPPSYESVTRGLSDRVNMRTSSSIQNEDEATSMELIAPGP

[6] = target: Nav1.9 (Homo sapiens, UniProt Q9UI33); details: read-out: TTX IC-50; cited from earlier work
[7] = target: Nav1.1 (Homo sapiens, UniProt P35498); details: read-out: TTX IC-50; cited from earlier work
[8] = target: Nav1.2 (Homo sapiens, UniProt Q99250); details: read-out: TTX IC-50; cited from earlier work

Structure (SMILES)	pIC50 [1]	further results
O=C(NCCOc1ccc(Cl)cc1)c1ccc(S(=O)(=O)Nc2nccs2)cc1 [Example 186, N-[2-(4-chlorophenoxy)ethyl]-4-[(1,3-thiazol-2-ylamino)sulfonyl]benzamide]	6.38	metabolism to the aniline containing sulfathiazole [2]: do not metabolize to form the aniline containing sulfathiazole
NC1=N[C@H](O)[C@H]2[C@H]3O[C@]4(O)O[C@@H]([C@@H](O)[C@@]2(N1)[C@@H]4O)[C@]3(O)CO [TTX, tetrodotoxin]		pIC50 [3]: 7.82; pIC50 [4]: 8.22; pIC50 [5]: 4.30; pIC50 [6]: 6.00; pIC50 [7]: 8.00; pIC50 [8]: 8.00
O=C(NCc1ccc(Cl)cc1)c1ccc(S(=O)(=O)Nc2nccs2)cc1 [Example 100, N-(4-chlorobenzyl)-4-[(1,3-thiazol-2-ylamino)sulfonyl]benzamide]	6.37	metabolism to the aniline containing sulfathiazole [2]: do not metabolize to form the aniline containing sulfathiazole
CC(C)(C)CCNC(=O)c1ccc(S(=O)(=O)Nc2nccs2)cc1 [Example 418, N-(3,3-dimethylbutyl)-4-[(1,3-thiazol-2-ylamino)sulfonyl]benzamide]	5.56	metabolism to the aniline containing sulfathiazole [2]: do not metabolize to form the aniline containing sulfathiazole
O=C(c1ccc(S(=O)(=O)Nc2nccs2)cc1)N(Cc1ccccc1)[C@H]1CCCC[C@H]1CO [Example 245, N-benzyl-N-[(1S,2R)-2-(hydroxymethyl)cyclohexyl]-4-[(1,3-thiazol-2-ylamino)sulfonyl]benzamide]	5.65	
O=C(NCc1ccc(Cl)cc1C(F)(F)F)c1ccc(S(=O)(=O)Nc2nccs2)cc1 [Example 406, N-[4-chloro-2-(trifluoromethyl)benzyl]-4-[(1,3-thiazol-2-ylamino)sulfonyl] benzamide]	6.59	
COc1cc(OC(F)(F)F)ccc1CNC(=O)c1ccc(S(=O)(=O)Nc2nccs2)cc1 [Example 404, N-[2-methoxy-4-(trifluoromethoxy)benzyl]-4-[(1,3-thiazol-2-ylamino)sulfonyl] benzamide]	6.85	
Cc1cc(NS(=O)(=O)c2ccc(C(=O)NCc3ccc(C(F)(F)F)cc3)cc2)no1 [Example 18, 4-{[(5-Methylisoxazol-3-yl)amino]sulofnyl}-N-[4-(trifluoromethyl)benzyl]benzamide]	5.65	
O=C(NCc1ccc(F)c(Cl)c1)c1ccc(S(=O)(=O)Nc2nccs2)c(F)c1 [Example 299, N-(3-chloro-4-fluorobenzyl)-3-fluoro-4-[(1,3-thiazol-2-yl-amino)sulfonyl]benzamide]	6.96	
Cc1nc(NS(=O)(=O)c2ccc(C(=O)NCc3ccc(C(F)(F)F)cc3)cc2)cs1 [Example 15, 4-{[(2-Methyl-1,3-thiazol-4-yl)amino]sulfonyl}-N-[4-(trifluoromethyl)benzyl]benzamide]	4.51	
Cc1ccccc1CNC(=O)c1ccc(S(=O)(=O)Nc2nccs2)cc1 [Example 91, N-(2-methylbenzyl)-4-[(1,3-thiazol-2-ylamino)sulfonyl]benzamide]	5.91	
O=C(NCc1ccc(C(F)(F)F)c(F)c1)c1ccc(S(=O)(=O)Nc2nccs2)cn1 [Example 340, N-[3-fluoro-4-(trifluoromethyl)benzyl]-5-[(1,3-thiazol-2-ylamino)sulfonyl]pyridine-2-carboxamide]	6.55	
